Species on record: Rattus norvegicus
Assay: Open TG-GATES - Regimen: Daily Repeat
Assay type: toxicity, organism-based, Sprague-Dawley
Parameters: regimen Daily Repeat, gender Male, age 6 weeks
Details: in vivo, po, 0 mg/kg, route gavage, dose level Control; for APTT / Bas / Eos / Fbg / Hb / Ht / Lym / MCHC / MCV / Mono / Neu / PT / Plat / RBC / Ret / WBC: tissue Blood; for KIDNEY_L / KIDNEY_R / KIDNEY_TOTAL: tissue Kidney; for LIVER: tissue Liver; for ALP / ALT / AST / BUN / CRE / Ca / Cl / DBIL / GLC / IP / K / LDH / Na / PL / RALB / TBIL / TC / TG / TP / gamma-GTP: tissue Plasma

SMILES: C1CCC(C(CC2CCCCN2)C2CCCCC2)CC1 (centres undefined) [PERHEXILINE]
- TERMINAL_BW (72 h, time 3 day): 228.9 g
- APTT (72 h, time 3 day): 21.9 s
- Bas (72 h, time 3 day): 0%
- Eos (72 h, time 3 day): 0.8%
- Fbg (72 h, time 3 day): 312.4 mg/dL
- Hb (72 h, time 3 day): 13.2 g/dL
- Ht (72 h, time 3 day): 39.2%
- Lym (72 h, time 3 day): 79%
- MCHC (72 h, time 3 day): 33.8%
- MCV (72 h, time 3 day): 63.9 fL
- Mono (72 h, time 3 day): 2.8%
- Neu (72 h, time 3 day): 16.2%
- PT (72 h, time 3 day): 16.7 s
- Plat (72 h, time 3 day): 133 x10_4/uL
- RBC (72 h, time 3 day): 613.6 x10_4/ul
- Ret (72 h, time 3 day): 7%
- WBC (72 h, time 3 day): 89.3 x10_2/uL
- KIDNEY_L (72 h, time 3 day): 1.1 g
- KIDNEY_R (72 h, time 3 day): 1 g
- KIDNEY_TOTAL (72 h, time 3 day): 2.1 g
- LIVER (72 h, time 3 day): 11.1 g
- ALP (72 h, time 3 day): 1695 IU/L
- ALT (72 h, time 3 day): 45.8 IU/L
- AST (72 h, time 3 day): 76.4 IU/L
- BUN (72 h, time 3 day): 16.4 mg/dL
- CRE (72 h, time 3 day): 0.1 mg/dL
- Ca (72 h, time 3 day): 11 mg/dL
- Cl (72 h, time 3 day): 107.2 meq/L
- DBIL (72 h, time 3 day): 0 mg/dL
- GLC (72 h, time 3 day): 192.6 mg/dL
- IP (72 h, time 3 day): 6.9 mg/dL
- K (72 h, time 3 day): 4.3 meq/L
- LDH (72 h, time 3 day): 248.8 IU/L
- Na (72 h, time 3 day): 143.2 meq/L
- PL (72 h, time 3 day): 149.4 mg/dL
- RALB (72 h, time 3 day): 3.2 g/dL
- TBIL (72 h, time 3 day): 0.01 mg/dL
- TC (72 h, time 3 day): 75.6 mg/dL
- TG (72 h, time 3 day): 113.8 mg/dL
- TP (72 h, time 3 day): 5.8 g/dL
- gamma-GTP (72 h, time 3 day): 1 IU/L
- TERMINAL_BW ([…], time 7 day): 255.2 g
- TERMINAL_BW ([…], time 14 day): 290.3 g
- TERMINAL_BW ([…], time 28 day): 335.5 g
- APTT ([…], time 7 day): 21.5 s
- Bas ([…], time 7 day): 0%
- Eos ([…], time 7 day): 0.6%
- Fbg ([…], time 7 day): 316.4 mg/dL
- Hb ([…], time 7 day): 13.5 g/dL
- Ht ([…], time 7 day): 38.5%
- Lym ([…], time 7 day): 81.8%
- MCHC ([…], time 7 day): 35.2%
- MCV ([…], time 7 day): 61.3 fL
- Mono ([…], time 7 day): 1.4%
- Neu ([…], time 7 day): 15%
- PT ([…], time 7 day): 16.1 s
- Plat ([…], time 7 day): 118.5 x10_4/uL
- RBC ([…], time 7 day): 629 x10_4/ul
- Ret ([…], time 7 day): 5.6%
- WBC ([…], time 7 day): 110.4 x10_2/uL
- APTT ([…], time 14 day): 23.3 s
- Bas ([…], time 14 day): 0%
- Eos ([…], time 14 day): 0.2%
- Fbg ([…], time 14 day): 294 mg/dL
- Hb ([…], time 14 day): 15 g/dL
- Ht ([…], time 14 day): 42.7%
- Lym ([…], time 14 day): 82%
- MCHC ([…], time 14 day): 35.2%
- MCV ([…], time 14 day): 60.8 fL
- Mono ([…], time 14 day): 1.2%
- Neu ([…], time 14 day): 15.2%
- PT ([…], time 14 day): 16.2 s
- Plat ([…], time 14 day): 116.2 x10_4/uL
- RBC ([…], time 14 day): 702.8 x10_4/ul
- Ret ([…], time 14 day): 3.5%
- WBC ([…], time 14 day): 97.2 x10_2/uL
- APTT ([…], time 28 day): 21.5 s
- Bas ([…], time 28 day): 0%
- Eos ([…], time 28 day): 0.6%
- Fbg ([…], time 28 day): 316.4 mg/dL
- Hb ([…], time 28 day): 13.5 g/dL
- Ht ([…], time 28 day): 38.5%
- Lym ([…], time 28 day): 81.8%
- MCHC ([…], time 28 day): 35.2%
- MCV ([…], time 28 day): 61.3 fL
- Mono ([…], time 28 day): 1.4%
- Neu ([…], time 28 day): 15%
- PT ([…], time 28 day): 16.1 s
- Plat ([…], time 28 day): 118.5 x10_4/uL
- RBC ([…], time 28 day): 629 x10_4/ul
- Ret ([…], time 28 day): 5.6%
- WBC ([…], time 28 day): 110.4 x10_2/uL
- KIDNEY_L ([…], time 7 day): 1.1 g
- KIDNEY_R ([…], time 7 day): 1.1 g
- KIDNEY_TOTAL ([…], time 7 day): 2.2 g
- KIDNEY_L ([…], time 14 day): 1.1 g
- KIDNEY_R ([…], time 14 day): 1.1 g
- KIDNEY_TOTAL ([…], time 14 day): 2.3 g
- KIDNEY_L ([…], time 28 day): 1.2 g
- KIDNEY_R ([…], time 28 day): 1.2 g
- KIDNEY_TOTAL ([…], time 28 day): 2.5 g
- LIVER ([…], time 7 day): 11.8 g
- LIVER ([…], time 14 day): 12.3 g
- LIVER ([…], time 28 day): 12.9 g
- ALP ([…], time 7 day): 1691 IU/L
- ALT ([…], time 7 day): 38 IU/L
- AST ([…], time 7 day): 67.6 IU/L
- BUN ([…], time 7 day): 18.6 mg/dL
- CRE ([…], time 7 day): 0.2 mg/dL
- Ca ([…], time 7 day): 10.5 mg/dL
- Cl ([…], time 7 day): 106.6 meq/L
- DBIL ([…], time 7 day): 0.002 mg/dL
- GLC ([…], time 7 day): 190.4 mg/dL
- IP ([…], time 7 day): 6.8 mg/dL
- K ([…], time 7 day): 4.1 meq/L
- LDH ([…], time 7 day): 174.2 IU/L
- Na ([…], time 7 day): 143.6 meq/L
- PL ([…], time 7 day): 152.6 mg/dL
- RALB ([…], time 7 day): 3.1 g/dL
- TBIL ([…], time 7 day): 0.014 mg/dL
- TC ([…], time 7 day): 79.8 mg/dL
- TG ([…], time 7 day): 101 mg/dL
- TP ([…], time 7 day): 5.8 g/dL
- gamma-GTP ([…], time 7 day): 1.6 IU/L
- ALP ([…], time 14 day): 1487.8 IU/L
- ALT ([…], time 14 day): 39.2 IU/L
- AST ([…], time 14 day): 71.8 IU/L
- BUN ([…], time 14 day): 19 mg/dL
- CRE ([…], time 14 day): 0.2 mg/dL
- Ca ([…], time 14 day): 10.2 mg/dL
- Cl ([…], time 14 day): 107 meq/L
- DBIL ([…], time 14 day): 0 mg/dL
- GLC ([…], time 14 day): 192 mg/dL
- IP ([…], time 14 day): 6.1 mg/dL
- K ([…], time 14 day): 4.2 meq/L
- LDH ([…], time 14 day): 180 IU/L
- Na ([…], time 14 day): 143.2 meq/L
- PL ([…], time 14 day): 134 mg/dL
- RALB ([…], time 14 day): 3.2 g/dL
- TBIL ([…], time 14 day): 0.005 mg/dL
- TC ([…], time 14 day): 59 mg/dL
- TG ([…], time 14 day): 131.5 mg/dL
- TP ([…], time 14 day): 5.8 g/dL
- gamma-GTP ([…], time 14 day): 1 IU/L
- ALP ([…], time 28 day): 1236.4 IU/L
- ALT ([…], time 28 day): 34.4 IU/L
- AST ([…], time 28 day): 60 IU/L
- BUN ([…], time 28 day): 17.8 mg/dL
- CRE ([…], time 28 day): 0.2 mg/dL
- Ca ([…], time 28 day): 10.1 mg/dL
- Cl ([…], time 28 day): 108.6 meq/L
- DBIL ([…], time 28 day): 0 mg/dL
- GLC ([…], time 28 day): 204.2 mg/dL
- IP ([…], time 28 day): 5.6 mg/dL
- K ([…], time 28 day): 4.2 meq/L
- LDH ([…], time 28 day): 148.4 IU/L
- Na ([…], time 28 day): 143.6 meq/L
- PL ([…], time 28 day): 129.6 mg/dL
- RALB ([…], time 28 day): 3 g/dL
- TBIL ([…], time 28 day): 0.008 mg/dL
- TC ([…], time 28 day): 63 mg/dL
- TG ([…], time 28 day): 92.8 mg/dL
- TP ([…], time 28 day): 6 g/dL
- gamma-GTP ([…], time 28 day): 1.4 IU/L

Reference: ChEMBL document CHEMBL3885861, “Open TG-GATES”
